Data published in US7344531B2, “Thermal surgical procedures and compositions” (Regents of the University of Minnesota, priority 2003, dated 2008).
Entries after “also recorded” stand apart in the source; their conditions may differ.

Assays:
[1] = system: LNCaP Pro 5 human prostate cancer tumor tissue; assay: Cryosurgery of TNF-alpha pre-inflamed LNCaP Pro 5 tumor in dorsal skin flap chamber (DSFC); format: in vivo, male athymic nude mice
Method: The dorsal skin flap chamber (DSFC) of male athymic nude mice was seeded with the tumor LNCaP […] human prostate cancer, inflamed with TNF-alpha, subjected to cryosurgery, and assessed according to the following procedure. The dorsal skin of a male athymic nude mouse was sandwiched between two identical anodized aluminum frames, a 19 millimeter (mm) by 22 mm chamber was mounted onto the mouse by three screws, the skin was attached to the chamber with 4-O silk using suture holes, and the skin on the side of the viewing region was removed, exposing the dermis containing the microvasculature on the opposite side of the skin. To provide chambers having tumors, approximately 5×10^6LNCaP […] human prostate tumor cells were mixed with MATRIGEL matrix (BD Biosciences, Bedford, Mass.) as described by Lim et al. (Prostate, 22:109-118 (1993)). Approximately 30 μl of the cell suspension was applied to the surface of the microvascular bed immediately after the initial chamber implantation and the tumor was allowed to grow for 10 days, the skin reaching a total thickness of about 450 micrometers (μm) and the tumor extending approximately 10 mm in diameter. […] After four (4) hours, the mouse was anesthetized, TNF-alpha-induced inflammation was measured by observation of leukocyte rolling, and thereafter cryosurgery was immediately performed in the inflamed tissue. […] The temperature at each thermocouple was recorded using a HYDRA DATA LOGGER SERIES 2 (Fluke, Everett, Wash.). […] The dorsal skin flap chamber was then illuminated with a mercury lamp and a FITC signal-enhancing filter (λ=470-490 nm) to view the contrast fluorescence. A Silicon Intensified Transmission camera (Hamamatsu, North Central Instruments, Twin Cities, Minn.) was used to detect the fluorescent signal, and the signal was recorded with a JVC S-VHS video recorder (JVC Company of America, Aurora, Ill.). […] The end temperature of the cryolesion and the thermal parameters within the cryosurgical ice ball were calculated according to the methods of Chao et al. (Cryobiology, 2004 (in press)). […]

[2] = system: normal nude mouse hypodermis (normal skin); assay: Cryosurgery of TNF-alpha pre-inflamed normal skin in dorsal skin flap chamber (DSFC); format: in vivo
[3] = system: Human dermal microvascular endothelial cells (MVEC); assay: Enhancement of direct cellular injury by freeze/thaw after TNF-alpha exposure, MVEC; format: cell-based
Method: Cell suspensions of human endothelial cells (MVECs) were used to assess the enhancement of direct cellular injury (DCI) by use of an adjuvant, wherein the adjuvant used is TNF-alpha.
Human dermal microvascular endothelial cells (MVEC) were prepared and grown as adherent monolayers as described by Gupta et al., Experimental Cell Research, 230:244-251 (1997), maintained in a 37° C./5% CO2/95% humidified air environment in T-flasks pre-coated with 1% gelatin in MCDB 131 medium supplemented with 20% heat-inactivated human male serum, hydrocortisone, cAMP, L-glutamine, heparin, endothelial cell growth supplement (Vec Tec, Schenectady, N.Y.) and antibiotics. […]
Control and experimental F/T groups were then assessed for cell viability at varying time points starting 3 hours after intervention. Cell viability was measured microscopically by a fluorescent dye assay (cell viability assay) by an apoptotic/necrotic assay.
The fluorescent dye assay was used to assess the plasma membrane integrity of cells immediately before (control) and after F/T using Hoechst 33342 and propidium iodide (PI). […] Cells were incubated with 9 μM Hoechst 33342 and 7 μM PI for 15 minutes at 37° C., placed on a microslide, cover-slipped and the percentage of dead cells/field determined at 200X using a fluorescent microscope (Olympus BX-50, Tokyo, Japan). […]

[4] = system: MCF-7 breast cancer cells; assay: Enhancement of direct cellular injury by freeze/thaw after TNF-alpha exposure, MCF-7; format: cell-based
[5] = system: LNCaP Pro 5 prostate cancer cells; assay: Enhancement of direct cellular injury by freeze/thaw after TNF-alpha exposure, LNCaP Pro 5; format: cell-based, human
[6] = TNF-alpha 10 ng/ml to 1 μg/ml for 4 to 48 hours before freeze/thaw

Substance: TNF-alpha
- position of the edge of the static zone relative to the edge of the ice ball ([1]; LNCaP Pro 5 tumor tissues treated with TNF-alpha): extended beyond the edge of the ice ball
- radius of the edge of the static zone (zone of vascular stasis) ([1]; day 3 post cryosurgery, LNCaP Pro 5 tumor tissue, local 0.2 ng TNF-alpha 4 hours before cryosurgery): 4.07±0.34 mm
- increase of the threshold temperature of cryo-destruction versus tissue without TNF-alpha ([1]; local use of TNF-alpha, LNCaP Pro 5 tumor tissue): more than 10 °C
- minimum temperature required for cryo-destruction ([2]; TNF-alpha-treated normal skin): −9.8±5.8 °C
- position of the edge of the static zone relative to the edge of the ice ball ([2]; inflamed normal skin tissues treated with TNF-alpha): stayed within the edge of the ice ball; also recorded: moved the edge of the static zone closer to the edge of the cryosurgical ice ball
- radius of the edge of the static zone (zone of vascular stasis) ([2]; normal nude mouse hypodermis treated with TNF-alpha, day 3 post cryosurgery): 3.99±0.13 mm
- cryosensitivity of cells in vitro [3, 6]: increase cryosensitivity
- necrosis of inflamed cells in vitro ([3]; apoptosis/necrosis assay): increased necrosis
- cryosensitivity of cells in vitro [4, 6]: increase cryosensitivity
- necrosis of inflamed cells in vitro ([4]; apoptosis/necrosis assay): increased necrosis
- cryosensitivity of cells in vitro [5, 6]: increase cryosensitivity
- necrosis of inflamed cells in vitro ([5]; apoptosis/necrosis assay): increased necrosis
